In patent US9790252B2, “2-fluorinated riboses and arabinoses and methods of use and synthesis” (CORNELL UNIVERSITY, priority 2009, dated 2017):

Columns and labels:
Type in all cases: biochemical
[1] = molecular target: T1, SirT1 (Homo sapiens, UniProt Q96EB6); experiment: SirT1 activity assay (HPLC of 2′- and 3′-AADPR); settings: 200 μM NAD+, 100 μM JB12 peptide; for SirT1 Ki / Ki: pH 7.5, 30 mins at 37° C.; for SirT1 inhibition (in words): pH 7.5
T1 sequence (Q96EB6 1-747): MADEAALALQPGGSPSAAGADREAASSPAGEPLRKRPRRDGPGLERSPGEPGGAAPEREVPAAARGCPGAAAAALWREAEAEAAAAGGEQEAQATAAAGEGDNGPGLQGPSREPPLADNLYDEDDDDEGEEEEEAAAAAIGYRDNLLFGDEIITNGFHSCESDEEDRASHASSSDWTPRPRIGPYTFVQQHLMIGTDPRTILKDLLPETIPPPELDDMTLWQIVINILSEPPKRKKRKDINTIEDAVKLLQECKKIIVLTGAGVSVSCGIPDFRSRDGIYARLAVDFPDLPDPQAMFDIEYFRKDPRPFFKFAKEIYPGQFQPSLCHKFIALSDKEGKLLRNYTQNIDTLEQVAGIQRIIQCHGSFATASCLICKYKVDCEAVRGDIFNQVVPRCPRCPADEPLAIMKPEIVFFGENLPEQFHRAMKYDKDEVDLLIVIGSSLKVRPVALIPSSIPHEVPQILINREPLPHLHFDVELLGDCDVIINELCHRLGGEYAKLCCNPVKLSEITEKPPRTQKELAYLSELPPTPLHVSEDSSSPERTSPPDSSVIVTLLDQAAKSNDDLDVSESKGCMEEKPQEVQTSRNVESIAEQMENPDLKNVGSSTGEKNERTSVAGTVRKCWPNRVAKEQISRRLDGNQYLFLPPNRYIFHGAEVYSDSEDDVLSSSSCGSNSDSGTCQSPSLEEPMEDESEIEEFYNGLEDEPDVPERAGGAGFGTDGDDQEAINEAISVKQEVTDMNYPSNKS
Protocol: (§1) Reactions containing 200 μM NAD^+, 100 μM JB12 peptide, and 100 mM phosphate buffer at pH 7.5, with varying concentrations of 2′-deoxy-2′-fluoro-nucleosides or nucleotides were initiated by addition of SirT1 enzyme to a concentration of 12.9 μM. Reactions were incubated for 30 mins at 37° C. and quenched by addition of trifluoroacetic acid to pH 2. After centrifugation to remove precipitates, reactions were injected on HPLC for activity analysis. Production of 2′- and 3′-AADPR were analyzed at 260 nm.
as §1, with “SirT1 Activity Assay: Reactions containing” for “Reactions containing”, “concentrations of 2′-deoxy-2′-chloro-nucleosides were initiated” for “concentrations of 2′-deoxy-2′-fluoro-nucleosides or nucleotides were initiated”

[2] = molecular target: T2, SirT3 (Homo sapiens, UniProt Q9NTG7); experiment: SirT3 activity assay (HPLC of 2′- and 3′-AADPR); settings: 800 μM NAD+, 500 μM H3 peptide, pH 7.5, 2 hours at 37° C.
T2 sequence (Q9NTG7 1-399): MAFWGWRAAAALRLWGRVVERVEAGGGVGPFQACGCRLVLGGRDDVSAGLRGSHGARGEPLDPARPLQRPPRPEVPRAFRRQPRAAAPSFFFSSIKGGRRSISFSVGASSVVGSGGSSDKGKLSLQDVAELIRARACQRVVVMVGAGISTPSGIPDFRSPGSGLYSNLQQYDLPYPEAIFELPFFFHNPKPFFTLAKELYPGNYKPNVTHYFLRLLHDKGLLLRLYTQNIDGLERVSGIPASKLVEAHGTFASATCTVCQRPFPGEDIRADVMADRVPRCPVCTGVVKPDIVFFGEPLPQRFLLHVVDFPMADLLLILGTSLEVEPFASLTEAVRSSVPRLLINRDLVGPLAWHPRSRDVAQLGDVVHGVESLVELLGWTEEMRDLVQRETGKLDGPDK
Protocol: as §1, with “containing 800” for “containing 200”, “NAD^+, 500” for “NAD^+, 100”, “μM H3” for “μM JB12”, “of SirT3” for “of SirT1”, “of 13.9” for “of 12.9”, “for 2 hours” for “for 30 mins”
SirT3 Activity Assay: Reactions containing 800 μM NAD^+, 500 μM H3 peptide, and 100 mM phosphate buffer at pH 7.5, with varying concentrations of 2′-deoxy-2′-chloro-nucleosides were initiated by addition of SirT3 enzyme to a concentration of 13.9 μM. Reactions were incubated for 2 hours at 37° C. and quenched by addition of trifluoroacetic acid to pH 2. After centrifugation to remove precipitates, reactions were injected on HPLC for activity analysis. Production of 2′- and 3′-AADPR were analyzed at 260 nm.

[3] = molecular target: T3, CD38 (Homo sapiens, UniProt P28907); experiment: CD38 activity assay (NGD+ turnover, 295 nm absorbance)
T3 sequence (P28907 1-300): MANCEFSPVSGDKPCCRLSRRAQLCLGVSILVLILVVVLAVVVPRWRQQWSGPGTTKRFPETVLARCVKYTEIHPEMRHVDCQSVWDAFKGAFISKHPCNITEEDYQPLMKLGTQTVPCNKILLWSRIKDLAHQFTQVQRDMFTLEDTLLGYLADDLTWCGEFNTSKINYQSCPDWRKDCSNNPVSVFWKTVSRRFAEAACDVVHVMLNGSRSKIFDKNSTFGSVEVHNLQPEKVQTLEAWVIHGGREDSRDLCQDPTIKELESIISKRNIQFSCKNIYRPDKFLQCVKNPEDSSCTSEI
Protocol: (§2) CD38 (500 nM) in 100 mM phosphate buffer at pH 7.5 was incubated with various concentrations of 2′-deoxy-2′-fluoro-nucleosides and nucleotides for 30 mins at room temperature. 35 μL of the enzyme inhibitor solution was added to a cuvette containing 1 mL of 100 mM phosphate buffer at pH 7.5, containing 200 μM NGD^+. Reaction progress upon initiation by enzyme addition was monitored by 295 nm absorbance.
as §2, with “CD38 Activity Assay: CD38” for “CD38”, “2′-deoxy-2′-chloro-nucleosides were” for “2′-deoxy-2′-fluoro-nucleosides and nucleotides”

SMILES	Ki [2] [µM]	Ki [1] [µM]	also measured
NC(=O)c1ccc[n+]([C@@H]2O[C@H](CO)C(O)C2F)c1 (stereo partly shown) [ara-F-NR, 1-(2′-deoxy-2′-fluoro-arabinofuranosyl)-nicotinamide]	623	–	SirT1 Ki [1]: Ki = high mM
NC(=O)c1ccc[n+]([C@@H]2O[C@H](COP(=O)([O-])O)C(O)C2(F)F)c1 (stereo partly shown) [gem-diF-NMN, 2′-deoxy-2′,2′-difluoro-ribo-nicotinamide mononucleotide]	128	18	CD38 inhibition (in words) ([3]; at 300 μM): inhibited at 300 μM
NC(=O)c1ccc[n+]([C@@H]2O[C@H](CO)[C@@H](O)C2(F)F)c1 [gem-diF-NR, 1-(2′-deoxy-2′,2′-difluoro-ribofuranosyl)-nicotinamide]	–	–	SirT1 inhibition (in words) [1]: no inhibition; SirT3 Ki [2]: Ki = high mM
NC(=O)c1ccc[n+]([C@@H]2O[C@H](COP(=O)([O-])O)C(O)C2F)c1 (stereo partly shown) [ribo-F-NMN, 2′-deoxy-2′-fluoro-ribo-nicotinamide mononucleotide]	106	–	SirT1 inhibition (in words) [1]: no inhibition
NC(=O)c1ccc[n+]([C@@H]2O[C@H](CO)C(O)[C@@H]2F)c1 (stereo partly drawn) [ribo-F-NR, 1-(2-deoxy-2-fluoro-D-ribofuranosyl)-nicotinamide]	250	200	–
NC(=O)c1ccc[n+]([C@@H]2O[C@H](CO)C(O)C2Cl)c1 (stereo partly drawn) [β-ara-Cl-NR, 1-(2′-deoxy-2′-chloro-arabinofuranosyl)-nicotinamide]	546	–	SirT1 Ki [1]: Ki = high mM
NC(=O)c1ccc[n+]([C@@H]2O[C@H](CO)C(O)C2(Cl)Cl)c1 (stereo partly drawn) [β-gem-diCl-NR, 1-(2′-deoxy-2′,2′-dichloro-ribofuranosyl)-nicotinamide]	123	780	inhibition at 500 µM ([3]; at 500 μM, read-out: CD38 % inhibited): 50%
